These are literature values, as cited in US20070135454A1, “Bicyclic pyrimidin-4(3h)-ones and analogues and derivatives thereof which modulate the function of the vanilloid-1-receptor(vr1)” (priority 2003, published 2007).

For the data set, the target named is VR1 (Rattus norvegicus, UniProt O35433). The following applies: Wahl et al., Mol. Pharmacol, 59:9, 2001.
VR1, sequence (O35433 whole entry): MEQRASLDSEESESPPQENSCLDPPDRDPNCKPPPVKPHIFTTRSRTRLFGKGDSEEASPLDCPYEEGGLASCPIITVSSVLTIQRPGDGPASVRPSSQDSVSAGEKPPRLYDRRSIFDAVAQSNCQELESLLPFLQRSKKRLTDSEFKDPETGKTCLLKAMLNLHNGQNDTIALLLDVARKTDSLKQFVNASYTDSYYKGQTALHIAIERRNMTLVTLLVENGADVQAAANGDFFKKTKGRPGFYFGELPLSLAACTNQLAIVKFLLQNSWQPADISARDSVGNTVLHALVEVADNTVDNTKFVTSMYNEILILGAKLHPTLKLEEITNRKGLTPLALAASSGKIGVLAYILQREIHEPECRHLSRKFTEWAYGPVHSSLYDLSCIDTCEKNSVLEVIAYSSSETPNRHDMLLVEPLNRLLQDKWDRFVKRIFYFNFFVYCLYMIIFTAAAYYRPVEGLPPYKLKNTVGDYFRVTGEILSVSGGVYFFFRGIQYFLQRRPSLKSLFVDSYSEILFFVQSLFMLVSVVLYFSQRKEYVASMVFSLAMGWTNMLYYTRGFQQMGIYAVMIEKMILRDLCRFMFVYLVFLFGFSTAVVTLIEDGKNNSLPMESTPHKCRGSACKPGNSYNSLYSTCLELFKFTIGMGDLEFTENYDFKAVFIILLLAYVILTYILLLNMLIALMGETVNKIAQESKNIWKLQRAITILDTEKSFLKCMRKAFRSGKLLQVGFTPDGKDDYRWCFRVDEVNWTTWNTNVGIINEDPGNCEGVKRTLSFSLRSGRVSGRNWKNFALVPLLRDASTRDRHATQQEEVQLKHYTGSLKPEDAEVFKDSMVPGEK

Turning to `C=C(C)[C@]12C[C@@H](C)[C@@]34O[C@](Cc5ccccc5)(O[C@@H]1[C@@H]3C=C(COC(=O)Cc1cc(I)c(O)c(OC)c1)C[C@]1(O)C(=O)C(C)=C[C@@H]41)O2` [Iodo-resiniferatoxin], the “antagonist of VR1 (potency in words)” value is “nanomolar antagonist of VR1”.
